In PubChem BioAssay (NCI):
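Where inhibition never reached the appropriate level, the endpoint shown equals the highest concentration tested. Otherwise, values were interpolated linearly from a five-concentration, 48-hour dose response in 96-well plates. TGI: concentration producing complete growth inhibition.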

How the values were obtained:
Assay in all cases: NCI anticancer screen, dose series, 48 h
M19-MEL melanoma = system: M19-MEL melanoma
LXFL 529 NSCLC = system: LXFL 529 NSCLC
RPMI-8226 leukemia = system: RPMI-8226 leukemia
OVCAR-8 ovarian = system: OVCAR-8 ovarian
KM12 colon = system: KM12 colon
RXF-631 renal = system: RXF-631 renal
UACC-62 melanoma = system: UACC-62 melanoma
U251 CNS = system: U251 CNS
MALME-3M melanoma = system: MALME-3M melanoma
A498 renal = system: A498 renal
MOLT-4 leukemia = system: MOLT-4 leukemia
OVCAR-5 ovarian = system: OVCAR-5 ovarian
RXF 393 renal = system: RXF 393 renal
DLD-1 colon = system: DLD-1 colon
SF-268 CNS = system: SF-268 CNS
786-0 renal = system: 786-0 renal
M14 melanoma = system: M14 melanoma
K-562 leukemia = system: K-562 leukemia
TK-10 renal = system: TK-10 renal
SK-MEL-5 melanoma = system: SK-MEL-5 melanoma
OVCAR-4 ovarian = system: OVCAR-4 ovarian
HOP-92 NSCLC = system: HOP-92 NSCLC
XF 498 CNS = system: XF 498 CNS
NCI-H460 lung = system: NCI-H460 lung
EKVX NSCLC = system: EKVX NSCLC
SF-295 CNS = system: SF-295 CNS
SK-MEL-28 melanoma = system: SK-MEL-28 melanoma
KM20L2 colon = system: KM20L2 colon
UO-31 renal = system: UO-31 renal
HCT-116 colon = system: HCT-116 colon
LOX IMVI melanoma = system: LOX IMVI melanoma
NCI-H23 lung = system: NCI-H23 lung
SNB-75 CNS = system: SNB-75 CNS
HOP-62 NSCLC = system: HOP-62 NSCLC
ACHN renal = system: ACHN renal
SK-MEL-2 melanoma = system: SK-MEL-2 melanoma
UACC-257 melanoma = system: UACC-257 melanoma
SNB-19 CNS = system: SNB-19 CNS
SN12C renal = system: SN12C renal
CAKI-1 renal = system: CAKI-1 renal
COLO 205 colon = system: COLO 205 colon
IGROV1 ovarian = system: IGROV1 ovarian
SR leukemia = system: SR leukemia
HCT-15 colon = system: HCT-15 colon
NCI-H226 lung = system: NCI-H226 lung
SK-OV-3 ovarian = system: SK-OV-3 ovarian
HT29 colon = system: HT29 colon
SNB-78 CNS = system: SNB-78 CNS
HCC-2998 colon = system: HCC-2998 colon
A549 NSCLC = system: A549 NSCLC
OVCAR-3 ovarian = system: OVCAR-3 ovarian
SF-539 CNS = system: SF-539 CNS
SW-620 colon = system: SW-620 colon
HL-60(TB) leukemia = system: HL-60(TB) leukemia
DMS 273 small cell lung = system: DMS 273 small cell lung
NCI-H522 lung = system: NCI-H522 lung
HOP-18 NSCLC = system: HOP-18 NSCLC
DMS 114 small cell lung = system: DMS 114 small cell lung
CCRF-CEM leukemia = system: CCRF-CEM leukemia

With O=C(COc1ccc2c(=O)cc(-c3ccc(Cl)cc3)oc2c1)N1CCN(c2ccccc2)CC1 the TGI (M19-MEL melanoma) was over 100 µM, the TGI (LXFL 529 NSCLC) was over 100 µM and the TGI (RPMI-8226 leukemia) was over 100 µM. It also gave a TGI (OVCAR-8 ovarian) of over 100 µM, a TGI (KM12 colon) of over 100 µM and a TGI (RXF-631 renal) of over 100 µM. The TGI (UACC-62 melanoma) was over 100 µM, the TGI (U251 CNS) was over 100 µM and the TGI (MALME-3M melanoma) was over 100 µM. For the same compound, the TGI (A498 renal) was over 100 µM, the TGI (MOLT-4 leukemia) was over 100 µM and the TGI (OVCAR-5 ovarian) was over 100 µM. It also gave a TGI (RXF 393 renal) of over 100 µM, a TGI (DLD-1 colon) of over 100 µM and a TGI (SF-268 CNS) of over 100 µM. It also gave a TGI (786-0 renal) of over 100 µM, a TGI (M14 melanoma) of over 100 µM and a TGI (K-562 leukemia) of over 100 µM. For the same compound, the TGI (TK-10 renal) was over 100 µM, the TGI (SK-MEL-5 melanoma) was over 100 µM and the TGI (OVCAR-4 ovarian) was over 100 µM. It also gave a TGI (HOP-92 NSCLC) of over 100 µM, a TGI (XF 498 CNS) of over 100 µM and a TGI (NCI-H460 lung) of over 100 µM. It also gave a TGI (EKVX NSCLC) of over 100 µM, a TGI (SF-295 CNS) of over 100 µM and a TGI (SK-MEL-28 melanoma) of over 100 µM. The TGI (KM20L2 colon) was over 100 µM, the TGI (UO-31 renal) was over 100 µM and the TGI (HCT-116 colon) was over 100 µM. For the same compound, the TGI (LOX IMVI melanoma) was over 100 µM, the TGI (NCI-H23 lung) was over 100 µM and the TGI (SNB-75 CNS) was over 100 µM. For the same compound, the TGI (HOP-62 NSCLC) was over 100 µM, the TGI (ACHN renal) was over 100 µM and the TGI (SK-MEL-2 melanoma) was over 100 µM. For the same compound, the TGI (UACC-257 melanoma) was over 100 µM, the TGI (SNB-19 CNS) was over 100 µM and the TGI (SN12C renal) was over 100 µM. The TGI (CAKI-1 renal) was over 100 µM, the TGI (COLO 205 colon) was over 100 µM and the TGI (IGROV1 ovarian) was over 100 µM. It also gave a TGI (SR leukemia) of over 100 µM, a TGI (HCT-15 colon) of over 100 µM and a TGI (NCI-H226 lung) of over 100 µM. For the same compound, the TGI (SK-OV-3 ovarian) was over 100 µM, the TGI (HT29 colon) was over 100 µM and the TGI (SNB-78 CNS) was over 100 µM. The TGI (HCC-2998 colon) was over 100 µM, the TGI (A549 NSCLC) was over 100 µM and the TGI (OVCAR-3 ovarian) was over 100 µM. For the same compound, the TGI (SF-539 CNS) was over 100 µM, the TGI (SW-620 colon) was over 100 µM and the TGI (HL-60(TB) leukemia) was over 100 µM.

With Cc1nc(N)nc(N)c1CCCCc1ccccc1 the TGI (M19-MEL melanoma) was 30.6 µM, the TGI (LXFL 529 NSCLC) was 73.8 µM and the TGI (RPMI-8226 leukemia) was 45.8 µM. The TGI (OVCAR-8 ovarian) was over 100 µM, the TGI (KM12 colon) was over 100 µM and the TGI (RXF-631 renal) was 39.1 µM. The TGI (UACC-62 melanoma) was 76.8 µM, the TGI (DMS 273 small cell lung) was 20.5 µM and the TGI (U251 CNS) was 51.4 µM. The TGI (MALME-3M melanoma) was 26.5 µM, the TGI (A498 renal) was over 100 µM and the TGI (MOLT-4 leukemia) was 63.5 µM. It also gave a TGI (OVCAR-5 ovarian) of over 100 µM, a TGI (RXF 393 renal) of 49.8 µM and a TGI (DLD-1 colon) of over 100 µM. For the same compound, the TGI (SF-268 CNS) was 45.7 µM, the TGI (NCI-H522 lung) was 31.6 µM and the TGI (786-0 renal) was 19 µM. It also gave a TGI (M14 melanoma) of 19.7 µM, a TGI (K-562 leukemia) of 18.1 µM and a TGI (TK-10 renal) of 88.7 µM. It also gave a TGI (SK-MEL-5 melanoma) of 17.1 µM, a TGI (HOP-18 NSCLC) of over 100 µM and a TGI (OVCAR-4 ovarian) of over 100 µM. It also gave a TGI (HOP-92 NSCLC) of 54.6 µM, a TGI (NCI-H460 lung) of 81.4 µM and a TGI (EKVX NSCLC) of over 100 µM. For the same compound, the TGI (DMS 114 small cell lung) was 24.1 µM, the TGI (SF-295 CNS) was over 100 µM and the TGI (KM20L2 colon) was 63.3 µM. The TGI (UO-31 renal) was over 100 µM, the TGI (HCT-116 colon) was over 100 µM and the TGI (LOX IMVI melanoma) was 23.9 µM. It also gave a TGI (NCI-H23 lung) of 20.6 µM, a TGI (SNB-75 CNS) of over 100 µM and a TGI (CCRF-CEM leukemia) of 24.8 µM. It also gave a TGI (HOP-62 NSCLC) of 56.4 µM, a TGI (ACHN renal) of over 100 µM and a TGI (SK-MEL-2 melanoma) of 40.9 µM. The TGI (UACC-257 melanoma) was 28.6 µM, the TGI (SNB-19 CNS) was over 100 µM and the TGI (SN12C renal) was over 100 µM. The TGI (CAKI-1 renal) was over 100 µM, the TGI (COLO 205 colon) was 21 µM and the TGI (IGROV1 ovarian) was over 100 µM. The TGI (SR leukemia) was 38.4 µM, the TGI (HCT-15 colon) was 63.3 µM and the TGI (SK-OV-3 ovarian) was over 100 µM. The TGI (HT29 colon) was 16.9 µM, the TGI (SNB-78 CNS) was over 100 µM and the TGI (HCC-2998 colon) was 22.7 µM. It also gave a TGI (A549 NSCLC) of over 100 µM, a TGI (OVCAR-3 ovarian) of 99.4 µM and a TGI (SF-539 CNS) of 36 µM. It also gave a TGI (SW-620 colon) of over 100 µM and a TGI (HL-60(TB) leukemia) of 20 µM.
